Measurements taken from ChEMBL document CHEMBL1201862, “PubChem BioAssay data set” (2004).
The source made the active and inactive calls.

Key:
[1] = molecular target: T1, Polyadenylate-binding protein 1 (Homo sapiens, UniProt P11940); assay: MLLE binding blockers, Cy5 peptide tracer – biochemical, fluorescence polarization, Cy5-PAM2 peptide, secondary, miRNA deadenylation inhibitor project, dose response (AID 602260); assay type: functional; conditions: read-out: IC50_Mean
[2] = viability of uninfected HEp-2 cells – cell-based, HTS, cytotoxicity control for RSV inhibitor project, dose response (AID 2410); assay type: functional; conditions: human respiratory syncytial virus
[3] = molecular target: T1, Polyadenylate-binding protein 1; assay: MLLE domain peptide-binding blockers, IC50 – biochemical, fluorescence polarization, FITC-PAM2 peptide, dose response (AID 602259); assay type: functional; conditions: read-out: IC50_Mean
[4] = cells
[5] = molecular target: T2, Tyrosine-protein phosphatase non-receptor type 7 (Homo sapiens, UniProt P35236); assay: HePTP tyrosine phosphatase activity blockers – biochemical, absorbance, leukemia target, primary screen (AID 521); assay type: functional
T2 sequence (P35236 whole entry): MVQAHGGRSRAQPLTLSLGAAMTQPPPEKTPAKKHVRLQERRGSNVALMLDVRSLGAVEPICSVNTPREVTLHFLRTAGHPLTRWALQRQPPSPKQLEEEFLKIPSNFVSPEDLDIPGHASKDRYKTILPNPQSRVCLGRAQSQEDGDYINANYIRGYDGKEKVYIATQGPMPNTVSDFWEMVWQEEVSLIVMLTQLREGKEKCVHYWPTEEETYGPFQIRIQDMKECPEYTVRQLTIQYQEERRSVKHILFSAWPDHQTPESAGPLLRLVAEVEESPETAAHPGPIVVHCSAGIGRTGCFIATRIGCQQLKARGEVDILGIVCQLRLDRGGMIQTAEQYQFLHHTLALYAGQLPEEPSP

[6] = A Cell Based Secondary Assay To Explore Cytotoxicity of Compounds that Sensitize Mycobacterium Tuberculosis to Beta-Lactam Antibiotics.; assay type: functional
[7] = molecular target: T3, Bcl-2-related protein A1 (Mus musculus, UniProt Q07440); assay: Bfl-1 binding inhibitors, SAR follow-up, biochemical, fluorescence polarization (AID 1070)
T3 sequence (Q07440 whole entry): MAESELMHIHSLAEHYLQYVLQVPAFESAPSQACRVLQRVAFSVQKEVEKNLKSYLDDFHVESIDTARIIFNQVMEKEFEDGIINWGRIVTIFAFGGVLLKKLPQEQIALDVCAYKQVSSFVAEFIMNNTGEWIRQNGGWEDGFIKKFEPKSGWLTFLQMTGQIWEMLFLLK

[8] = molecular target: T3, Bcl-2-related protein A1; assay: small-molecule antagonists of Bfl-1/BH3 interaction – biochemical, TR-FRET, mouse Bfl-1, confirmation (AID 621);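 further: TR-FRET binding of GST-Bfl-1 to FITC-labelled Bid peptide via terbium antibody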
[9] = molecular target: Glyceraldehyde-3-phosphate dehydrogenase (Homo sapiens, UniProt P04406)
Sequence of Glyceraldehyde-3-phosphate dehydrogenase (P04406 whole entry): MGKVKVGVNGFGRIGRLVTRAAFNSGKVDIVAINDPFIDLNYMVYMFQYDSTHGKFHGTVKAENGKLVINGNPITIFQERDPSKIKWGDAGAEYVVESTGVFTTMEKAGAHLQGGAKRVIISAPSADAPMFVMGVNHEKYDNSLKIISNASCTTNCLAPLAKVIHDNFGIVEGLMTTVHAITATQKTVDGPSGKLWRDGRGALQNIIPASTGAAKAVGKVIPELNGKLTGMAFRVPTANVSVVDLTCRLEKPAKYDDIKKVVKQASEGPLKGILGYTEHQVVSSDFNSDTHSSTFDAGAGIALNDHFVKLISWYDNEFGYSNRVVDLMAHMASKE

[10] = molecular target: Ephrin type-A receptor 4 (Mus musculus, UniProt Q03137); assay: EphA4 ligand-binding antagonists – biochemical, colorimetric, mouse EphA4, primary screen (AID 689); assay type: functional
Sequence of Ephrin type-A receptor 4 (Q03137 whole entry): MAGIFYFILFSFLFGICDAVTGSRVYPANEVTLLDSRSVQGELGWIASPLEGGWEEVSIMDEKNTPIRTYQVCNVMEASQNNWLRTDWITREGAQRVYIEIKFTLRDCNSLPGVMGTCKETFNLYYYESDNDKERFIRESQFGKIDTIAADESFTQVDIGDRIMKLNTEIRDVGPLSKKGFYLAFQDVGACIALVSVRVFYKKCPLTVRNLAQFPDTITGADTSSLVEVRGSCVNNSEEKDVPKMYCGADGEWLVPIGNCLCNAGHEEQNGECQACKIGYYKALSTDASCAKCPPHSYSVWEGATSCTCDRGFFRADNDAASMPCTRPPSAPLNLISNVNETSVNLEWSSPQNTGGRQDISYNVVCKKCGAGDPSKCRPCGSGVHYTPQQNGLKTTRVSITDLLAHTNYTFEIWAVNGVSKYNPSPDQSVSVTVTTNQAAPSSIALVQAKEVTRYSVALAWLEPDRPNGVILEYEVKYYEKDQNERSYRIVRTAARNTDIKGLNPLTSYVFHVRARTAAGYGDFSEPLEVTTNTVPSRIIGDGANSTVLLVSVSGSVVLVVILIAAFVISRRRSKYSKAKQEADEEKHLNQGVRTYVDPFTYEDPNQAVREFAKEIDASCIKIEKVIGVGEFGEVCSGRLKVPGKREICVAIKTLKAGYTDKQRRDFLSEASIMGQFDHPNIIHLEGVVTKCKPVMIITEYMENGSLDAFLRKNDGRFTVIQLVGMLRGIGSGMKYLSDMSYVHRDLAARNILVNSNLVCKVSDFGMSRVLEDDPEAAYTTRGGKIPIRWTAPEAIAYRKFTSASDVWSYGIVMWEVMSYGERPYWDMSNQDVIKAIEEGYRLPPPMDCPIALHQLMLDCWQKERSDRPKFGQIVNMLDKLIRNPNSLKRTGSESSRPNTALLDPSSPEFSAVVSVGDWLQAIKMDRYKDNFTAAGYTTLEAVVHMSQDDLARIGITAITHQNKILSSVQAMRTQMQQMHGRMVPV

T1 sequence (P11940 whole entry): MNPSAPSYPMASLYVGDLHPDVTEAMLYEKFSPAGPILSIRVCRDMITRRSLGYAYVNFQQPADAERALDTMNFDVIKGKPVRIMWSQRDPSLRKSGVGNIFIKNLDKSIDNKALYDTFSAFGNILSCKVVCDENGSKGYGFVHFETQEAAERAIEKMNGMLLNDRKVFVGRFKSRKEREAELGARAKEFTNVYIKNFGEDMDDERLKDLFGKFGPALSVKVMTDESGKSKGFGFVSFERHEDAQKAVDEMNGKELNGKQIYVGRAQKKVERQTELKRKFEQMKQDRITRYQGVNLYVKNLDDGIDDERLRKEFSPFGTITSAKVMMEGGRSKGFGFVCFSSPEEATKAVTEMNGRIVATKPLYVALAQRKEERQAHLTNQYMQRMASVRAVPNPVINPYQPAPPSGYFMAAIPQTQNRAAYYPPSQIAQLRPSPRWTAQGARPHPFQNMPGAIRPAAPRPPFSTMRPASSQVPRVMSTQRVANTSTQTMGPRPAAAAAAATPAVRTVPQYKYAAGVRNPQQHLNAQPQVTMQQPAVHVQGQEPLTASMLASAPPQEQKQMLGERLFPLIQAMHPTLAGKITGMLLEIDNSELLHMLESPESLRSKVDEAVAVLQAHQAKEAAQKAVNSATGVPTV

**Q.** For `Cc1ccc(C(=O)O)cc1NC(=S)NC(=O)c1ccc(-c2ccc(Cl)cc2)o1`, which IC50 [1] is on record?
**A.** > 66 µM (inactive)

**Q.** And the CC50 [2]?
**A.** 23.2 µM (active)

**Q.** What about the IC50 [3] of the same molecule?
**A.** > 66 µM (inactive)

**Q.** What about the IC50 [4] of the same molecule?
**A.** 22.8 µM (active)

**Q.** With `COc1ccc(NC(=O)C2CCCN(S(=O)(=O)c3cccnc3)C2)cc1` (configuration not stated) as the molecule, how does the IC50 [5] read?
**A.** > 100 µM (not active)

**Q.** What does the source list for `COc1ccc(OC)c(Nc2nc(-c3cccs3)cs2)c1`?
**A.** CC50 [6]: > 40 µM (active); CC50 [2]: 26.5 µM (active)

**Q.** Which IC50 [7] does the source give for `Cc1ccc(Cl)cc1N1CCN(C2=C(Cl)C(=O)N(c3ccc(Cl)c(Cl)c3)C2=O)CC1` here?
**A.** > 100 µM (not active)

**Q.** What about the IC50 [8] of the same molecule?
**A.** > 100 µM (not active)

**Q.** What about the IC50 [9] of the same molecule?
**A.** > 100 µM (not active)

**Q.** For `O=C(c1ccc2c(=O)n(Cc3ccc4c(c3)OCO4)c(=S)[nH]c2c1)N1CCCCC1`, which IC50 [10] is on record?
**A.** > 100 µM (not active)

**Q.** Which CC50 [6] does the source give for `COc1ccc(Cn2c(=O)[nH]c3cc(C(=O)N4CCN(c5ccccc5F)CC4)ccc3c2=O)cc1` here?
**A.** > 40 µM (active)
